Assay results from patent publication US11918582B2 (RAPT Therapeutics, Inc., priority 2021, dated 2024).
Structures can show the parent of a compound that is named as a salt.

molecular target: T1, human HPK1 (MAP4K1) (Homo sapiens, UniProt Q92918); assay: Biochemical assay for activity against HPK1 (ADP-Glo, MBP substrate); settings: recombinant human HPK1 kinase domain, 1 nM enzyme, ADP-Glo luminescence
T1 construct: Recombinant human HPK1 kinase domain was obtained from ThermoFisher (Cat. #PV6357) and SignalChem (Cat. #M23-11G); purchased ThermoFisher; SignalChem PV6357; M23-11G
T1 sequence (Q92918 17-274 limits assumed): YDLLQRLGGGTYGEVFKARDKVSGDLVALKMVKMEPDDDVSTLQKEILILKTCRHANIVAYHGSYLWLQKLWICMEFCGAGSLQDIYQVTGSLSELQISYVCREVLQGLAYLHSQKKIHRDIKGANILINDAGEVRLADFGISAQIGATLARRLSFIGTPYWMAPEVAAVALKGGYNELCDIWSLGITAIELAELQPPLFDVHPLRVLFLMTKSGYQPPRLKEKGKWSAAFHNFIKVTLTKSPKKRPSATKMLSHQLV
Summary of the method: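 IC50s come from ADP-Glo luminescence after a 2 h room-temperature reaction phosphorylating MBP in the presence of ATP. Compound was first preincubated 15 min with 1 nM HPK1 kinase domain, human recombinant. Buffer: 50 mM HEPES pH 7.5, 150 mM NaCl, 3 mM TCEP, 10 mM MgCl2, 0.005% Tween-20, 0.01% BSA.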

IC50, < 100 nM:
COc1cc2c(cc1Nc1ncc3cnn([C@H]4CC[C@H](NC(C)=O)CC4)c3n1)CN(C)CC2 [Example 69, trans-N-[4-[6-[(6-methoxy-2-methyl-3,4-dihydro-1H-isoquinolin-7-yl)amino]pyrazolo[3,4-d]pyrimidin-1-yl]cyclohexyl]acetamide]
COc1cc2c(cc1Nc1ncc3c(C)nn([C@H]4CC[C@@H](O)C4)c3n1)CN(C)CC2 (relative stereo) [Example 149, (rel-1S,3R)-3-(6-((6-methoxy-2-methyl-1,2,3,4-tetrahydroisoquinolin-7-yl)amino)-3-methyl-1H-pyrazolo[3,4-d]pyrimidin-1-yl)cyclopentan-1-ol]
COc1cc2c(cc1Nc1ncc3cnn(CCC(C)(C)O)c3n1)CN(C)CC2 [Example 85, 4-[6-[(6-methoxy-2-methyl-3,4-dihydro-1H-isoquinolin-7-yl)amino]pyrazolo[3,4-d]pyrimidin-1-yl]-2-methyl-butan-2-ol]
CN1CCc2ccc(Nc3ncc4cnn([C@@H]5CCOC5)c4n3)cc2C1 [Example 20, (R)-2-methyl-N-(1-(tetrahydrofuran-3-yl)-1H-pyrazolo[3,4-d]pyrimidin-6-yl)-1,2,3,4-tetrahydroisoquinolin-7-amine]
COc1cc2c(cc1Nc1ncc3cnn([C@H]4CC[C@H](O)CC4)c3n1)CN(CCF)CC2 [Example 153, trans-4-(6-((2-(2-fluoroethyl)-6-methoxy-1,2,3,4-tetrahydroisoquinolin-7-yl)amino)-1H-pyrazolo[3,4-d]pyrimidin-1-yl)cyclohexan-1-ol]
COc1cc2c(cc1Nc1ncc3c(C)nn([C@H]4CC[C@@H](O)CC4)c3n1)CN(C)CC2 [Example 45, (cis)-4-(6-((6-methoxy-2-methyl-1,2,3,4-tetrahydroisoquinolin-7-yl)amino)-3-methyl-1H-pyrazolo[3,4-d]pyrimidin-1-yl)cyclohexan-1-ol]
COc1cc2c(cc1Nc1ncc3cnn(C[C@H]4C[C@@H](NS(C)(=O)=O)C4)c3n1)CN(C)CC2 [Example 120, cis N-(3-((6-((6-methoxy-2-methyl-1,2,3,4-tetrahydroisoquinolin-7-yl)amino)-1H-pyrazolo[3,4-d]pyrimidin-1-yl)methyl)cyclobutyl)methanesulfonamide trifluoroacetate]
COc1cc2c(cc1Nc1ncc3cnn(C[C@@H]4CCC[C@H]4C(=O)O)c3n1)CN(C)CC2 [Example 157, (1R,2R)-2-[[6-[(6-methoxy-2-methyl-3,4-dihydro-1H-isoquinolin-7-yl)amino]pyrazolo[3,4-d]pyrimidin-1-yl]methyl]cyclopentanecarboxylic Acid]
COc1cc2c(cc1Nc1ncc3cnn(C[C@H]4C[C@@H](NC(C)=O)C4)c3n1)CN(C)CC2 [Example 119, cis N-(3-((6-((6-methoxy-2-methyl-1,2,3,4-tetrahydroisoquinolin-7-yl)amino)-1H-pyrazolo[3,4-d]pyrimidin-1-yl)methyl)cyclobutyl)acetamide]
COc1cc2c(cc1Nc1ncc3c(C)nn([C@H]4CC[C@@H](C(N)=O)CC4)c3n1)CN(C)CC2 [Example 51, (cis)-4-(6-((6-methoxy-2-methyl-1,2,3,4-tetrahydroisoquinolin-7-yl)amino)-3-methyl-1H-pyrazolo[3,4-d]pyrimidin-1-yl)cyclohexane-1-carboxamide]
COc1nc2c(cc1Nc1ncc3cnn(C[C@@H]4CC[C@H](C)N4C(C)=O)c3n1)CN(C)CC2 [Example 172, 1-[(2S,5S)-2-[[6-[(2-methoxy-6-methyl-7,8-dihydro-5H-1,6-naphthyridin-3-yl)amino]pyrazolo[3,4-d]pyrimidin-1-yl]methyl]-5-methyl-pyrrolidin-1-yl]ethenone]
